Laboratory results published in patent US20250090659A1, “COMBINATION THERAPY WITH AN ANTI-CD19 ANTIBODY AND PARSACLISIB” (Incyte Corporation, priority 2020, published 2025).

B1: Tafasitamab: IgG1-G2/kappa Fc-engineered (S239D, I332E) monoclonal antibody targeting human CD19; heavy chain SEQ ID NO:2, light chain SEQ ID NO:3 (antibody)
heavy: EVQLVESGGGLVKPGGSLKLSCAASGYTFTSYVMHWVRQAPGKGLEWIGYINPYNDGTKYNEKFQGRVTISSDKSISTAYMELSSLRSEDTAMYYCARGTYYYGTRVFDYWGQGTLVTVSSASTKGPSVFPLAPSSKSTSGGTAALGCLVKDYFPEPVTVSWNSGALTSGVHTFPAVLQSSGLYSLSSVVTVPSSSLGTQTYICNVNHKPSNTKVDKKVEPKSCDKTHTCPPCPAPELLGGPDVFLFPPKPKDTLMISRTPEVTCVVVDVSHEDPEVQFNWYVDGVEVHNAKTKPREEQFNSTFRVVSVLTVVHQDWLNGKEYKCKVSNKALPAPEEKTISKTKGQPREPQVYTLPPSREEMTKNQVSLTCLVKGFYPSDIAVEWESNGQPENNYKTTPPMLDSDGSFFLYSKLTVDKSRWQQGNVFSCSVMHEALHNHYTQKSLSLSPGK
light: DIVMTQSPATLSLSPGERATLSCRSSKSLQNVNGNTYLYWFQQKPGQSPQLLIYRMSNLNSGVPDRFSGSGSGTEFTLTISSLEPEDFAVYYCMQHLEYPITFGAGTKLEIKRTVAAPSVFIFPPSDEQLKSGTASVVCLLNNFYPREAKVQWKVDNALQSGNSQESVTEQDSKDSTYSLSSTLTLSKADYEKHKVYACEVTHQGLSSPVTKSFNRGEC

Key:
Pfeiffer cells = assay: Cell proliferation (Cell titer Glo), Pfeiffer; type: cell-based; details: no NK cells, 24, 48 and 72 hours
Experimental: (§1) Besides ADCC cytotoxicity, effects of tafasitamab and parsaclisib on cell proliferation were also evaluated by treating target cells with matrix dosing of tafasitamab and parsaclisib in the absence of NK cells. After 24 hours, 48 hours, and 72 hours, proliferation was assessed by adding 100 ul of Cell titer Glo to wells containing 100 ul of treated cells in duplicates. The data was presented as RLUs, which is in proportion to cell proliferation.

WSU-NHL cells = assay: Cell proliferation (Cell titer Glo), WSU-NHL; type: cell-based; details: no NK cells, 24, 48 and 72 hours
Experimental: as §1

SuDHL4 cells = assay: Cell proliferation (Cell titer Glo), SuDHL4; type: cell-based; details: no NK cells, 24, 48 and 72 hours
Experimental: as §1

SuDHL6 cells = assay: Cell proliferation (Cell titer Glo), SuDHL6; type: cell-based; details: no NK cells, 24, 48 and 72 hours
Experimental: as §1

[1] = tested on: A20 murine lymphoma cells; assay: In vivo efficacy in A20 mouse lymphoma model; parameters: species or system Balb/c mice
Experimental: Female Balb/c mice were subcutaneously inoculated with 5×10^5 A20 murine lymphoma cells to form flank tumors. When tumors reached approximately 100 mm^3, mice were randomized into 4 groups for dosing (N=10 mice/group). Dosing groups were as follows: (1) Vehicle (5% dimethyl acetimde+95% methylcellulose)-administered by mouth twice a day; (2) Murine anti-CD19 antibody (12014B35 from Absolute Antibody)—[…] administered intraperitoneally once weekly; (3) Parsaclisib (INCB050465)—3 mg/kg administered by mouth twice a day; and (4) Murine anti-CD19 antibody+Parsaclisib.
Tumor volumes were measured twice weekly. The study concluded when mean tumor volumes of each group reached 2000 mm^3. All doses were tolerated as assessed by body weights. Percent tumor growth inhibition (TGI %) was calculated by: [1-(mean tumor volume of test group)/(mean tumor volume of vehicle group)]×100. Tumor growth delay (TGD) was determined by the number of days needed (approximate) after dosing ceases for mean tumor volumes of dosed groups to reach the final mean tumor volume of the vehicle group.

Mec1 cells = assay: ADCC assay with NK cells, Mec1 target cells; type: cell-based; details: Mec1 cells pre-treated 7 days with parsaclisib 0.3 to 20 μM or DMSO, E:T 2:1, tafasitamab 1:10 dilutions from 1 μg/ml, 4 hours, dead target cells by flow cytometry
Experimental: (§2) The cytotoxicity of tafasitamab and parsaclisib (INCB050465) alone and in combination was tested in the following cells lines: MEC-1 (CLL), MEC-2 (CLL), JVM-2 (Mantle Cell Lymphoma), WSU-NHL, Pfeiffer, Su-DHL4, and Su-DHL6.
(§3) Target cells were pre-treated for 7 days with various doses of parsaclisib in the range of 0.3 to 20 μM (parsaclisib alone group and tafasitamab and parsaclisib combination group). The tafasitamab alone group was pre-treated with DMSO for the same period of time.
NK cells were isolated from human primary PBMC from multiple donors using EasySep™ Human NK Cell Isolation Kit (STEMCELL Technologies) and frozen. NK cells were thawed and cultured overnight in medium supplemented with 2 IU/ml of IL-2 (Peprotech) 24 hours before the ADCC assay.
The following controls were used in all experiments: (i) Target cells+NK cells without antibodies; (ii) Target cells+NK cells+huIgG1 isotype control antibody; and (iii) Target cells alone. […]
(§4) The cytotoxicity of tafasitamab alone was evaluated following the same procedure in cells that were treated with DMSO. […] After 4 hours incubation, cells were stained with Zombie Violet fixable cell viability dye (Biolegend 423114) and measured by flow cytometry to evaluate cell toxicity. […]

JVM2 cells [2] = assay: ADCC assay with NK cells, JVM2 target cells; type: cell-based; details: JVM2 cells pre-treated 7 days with parsaclisib 0.3 to 20 μM or DMSO, E:T 2:1, tafasitamab 1:10 dilutions from 1 μg/ml, 4 hours, dead target cells by flow cytometry
Experimental: as §2, §3
NK cells were isolated from human primary PBMC from multiple donors using EasySep™ Human NK Cell Isolation Kit (STEMCELL Technologies) and frozen. NK cells were thawed and cultured overnight in medium supplemented with 2 IU/ml of IL-2 (Peprotech) 24 hours before the ADCC assay. […]
as §4
Data from two separately conducted experiments were analyzed to assess potential synergistic activity of tafasitamab and parsaclisib in JVM2 cells. […] Synergy scores were calculated using SynergyFinder 2.0 (https://synergyfinder.fimm.fi). […]

Mec2 cells = assay: Cell proliferation (Cell titer Glo), Mec2; type: cell-based; details: no NK cells, 24, 48 and 72 hours
Experimental: as §1

JVM2 cells [3] = assay: Cell proliferation (Cell titer Glo), JVM2; type: cell-based; details: no NK cells, 24, 48 and 72 hours
Experimental: as §1

Molecule	cell proliferation (RLUs) (Pfeiffer cells)	cell proliferation (RLUs) (WSU-NHL cells)	cell proliferation (RLUs) (SuDHL4 cells)	cell proliferation (RLUs) (SuDHL6 cells)	TGI (%) ([1]; A20 flank tumors in Balb/c mice, antibody 150 mg i.p. once weekly, parsaclisib 3 mg/kg by mouth twice a day, vs vehicle group)	TGD ([1]; approximate days after dosing ceases for mean tumor volume to reach final mean tumor volume of vehicle group) [days]	ADCC activity (Mec1 cells)	ADCC activity (JVM2 cells [2])	cell proliferation (RLUs) (Mec2 cells)	cell proliferation (RLUs) (JVM2 cells [3])
CCOc1c(C(C)n2nc(C)c3c(N)ncnc32)cc(Cl)c(F)c1C1CNC(=O)C1 (stereo not drawn) [Parsaclisib, 4-{3-[1-(4-amino-3-methyl-1H-pyrazolo[3,4-d]pyrimidin-1-yl)ethyl]-5-chloro-2-ethoxy-6-fluorophenyl}pyrrolidin-2-one]	proliferation was inhibited by the treatment of parsaclisib in time and dose dependent manners	proliferation was inhibited by the treatment of parsaclisib in time and dose dependent manners	showed sensitivity to neither	showed sensitivity to neither	26.6	1.4				
B1			showed sensitivity to neither	showed sensitivity to neither			displayed ADCC activity in a dose dependent manner	displayed ADCC activity in a dose dependent manner	proliferation was inhibited by tafasitamab in time and dose dependent manners	proliferation was inhibited by tafasitamab in time and dose dependent manners
